Data set [1] can be described thus: Half life in Sprague-Dawley rat at 2 mg/kg, iv or 5 mg/kg, po. The conditions noted are these: in vivo. Format: ADME, organism-based.
Data set [2] deals with Hepatitis C virus. Briefly: Antiviral activity against HCV genotype 1a assessed as replicon RNA level measured after 3 days by real-time PCR method. Format: functional, organism-based, Hepacivirus hominis. As to conditions: subtype 1a, 72 h.
Data set [3] in a line: Clearance in Sprague-Dawley rat at 2 mg/kg, iv or 5 mg/kg, po. As to conditions: in vivo. Format: ADME, organism-based.
The nature of data set [4]: AUC in Sprague-Dawley rat at 5 mg/kg, po. As to conditions: Sprague-Dawley, in vivo. Format: ADME, organism-based.
Data set [5] concerns Hepatitis C virus. Kind of data set: Antiviral activity against HCV genotype 1a harboring NS5A Y93H mutant assessed as replicon RNA level measured after 3 days by real-time PCR method. Format: functional, organism-based, Hepacivirus hominis. As to conditions: subtype 1a, 72 h.
The test system of data set [6] is Hepatitis C virus. Kind of data set: Antiviral activity against HCV genotype 1b assessed as replicon RNA level measured after 3 days by real-time PCR method. As to conditions: 72 h. Format: functional, organism-based, Hepacivirus hominis.
The nature of data set [7]: Oral bioavailability in Sprague-Dawley rat at 5 mg/kg. Format: ADME, organism-based. The conditions noted are these: Sprague-Dawley, in vivo.
Data set [8] relates to Hepatitis C virus. Kind of data set: Antiviral activity against HCV genotype 4a assessed as replicon RNA level measured after 3 days by real-time PCR method. Format: functional, organism-based, Hepacivirus hominis. As to conditions: 72 h.
In data set [9] the test system is Hepatitis C virus. Briefly: Antiviral activity against HCV genotype 3a assessed as replicon RNA level measured after 3 days by real-time PCR method. The conditions noted are these: 72 h. Format: functional, organism-based, Hepacivirus hominis.
Data set [10] has as its system Hepatitis C virus. Kind of data set: Antiviral activity against HCV genotype 2a assessed as replicon RNA level measured after 3 days by real-time PCR method. Format: functional, organism-based, Hepacivirus hominis. As to conditions: 72 h.
Data set [11] has as its system Hepatitis C virus. Kind of data set: Antiviral activity against HCV genotype 1a harboring NS5A L31V mutant assessed as replicon RNA level measured after 3 days by real-time PCR method. Format: functional, organism-based, Hepacivirus hominis. As to conditions: subtype 1a, 72 h.
The subject of data set [12] is Hepatitis C virus. Briefly: Antiviral activity against HCV genotype 2b assessed as replicon RNA level measured after 3 days by real-time PCR method. Format: functional, organism-based, Hepacivirus hominis. As to conditions: 72 h.

Where only a bound is given, the exact number is not on record here.

In data set [1], `COC(=O)N[C@H](C(=O)N1CCC[C@H]1c1ncc(-c2ccc3c(c2)OC(c2ccc(Cl)cc2)n2c-3cc3cc(-c4cnc([C@@H]5CCCN5C(=O)[C@@H](NC(=O)OC)C(C)C)[nH]4)ccc32)[nH]1)C(C)C` (some centres undefined) showed a half-life of 4.5 h. The EC50 in [2] came to 0.009 nM; in data set [5], 5 nM; in data set [6] it was 0.01 nM; in data set [8] it was 0.01 nM; in data set [9], 0.04 nM; in data set [10], 0.005 nM. The EC50 in data set [11] was determined as 0.3 nM. The same molecule returned a clearance in data set [3] of 10 mL/min/kg. Besides, the AUC in [4] is 0.88 µM·h. This molecule registered a bioavailability in [7] of 10%.
`COC(=O)N[C@H](C(=O)N1CCC[C@H]1c1ncc(-c2ccc3c(c2)OC(c2cccc(OC(F)(F)F)c2)n2c-3cc3cc(-c4cnc([C@@H]5CCCN5C(=O)[C@@H](NC(=O)OC)C(C)C)[nH]4)ccc32)[nH]1)C(C)C` (mixture of isomers): the half-maximal effective concentration (EC50) in data set [2] is 0.005 nM; in data set [5], 6.2 nM; in data set [6], 0.003 nM; in data set [12], 3 nM; in data set [8], 0.01 nM; in data set [9], 0.03 nM. The concentration giving a half-maximal response (EC50) in [10] is 0.003 nM; in data set [11], 0.2 nM.
With `CCOc1cccc(C2Oc3cc(-c4cnc([C@@H]5CCCN5C(=O)[C@@H](NC(=O)OC)C(C)C)[nH]4)ccc3-c3cc4cc(-c5cnc([C@@H]6CCCN6C(=O)[C@@H](NC(=O)OC)C(C)C)[nH]5)ccc4n32)c1` (mixture of isomers), the EC50 in data set [2] amounted to 0.02 nM; in data set [5], 1.8 nM; in data set [6], 0.001 nM; in data set [12] it was 0.4 nM; in data set [8], 0.0005 nM; in data set [9], 0.05 nM. Further, the figures for the EC50 in [10] and in data set [11] were 0.01 nM and 0.2 nM, respectively.
As to `COC(=O)N[C@H](C(=O)N1CCC[C@H]1c1ncc(-c2ccc3c(c2)OC(c2cccc(C(=O)O)c2)n2c-3cc3cc(-c4cnc([C@@H]5CCCN5C(=O)[C@@H](NC(=O)OC)C(C)C)[nH]4)ccc32)[nH]1)C(C)C` (mixture of isomers), the EC50 in [2] is 2.83 nM; in data set [5] it was greater than 1000 nM; in data set [6], 2.4 nM; in data set [12] it was greater than 1000 nM; in data set [8] it was 5.15 nM; in [9], 290 nM. Also, the EC50 in [10] turned out to be 11.8 nM; in data set [11], 212 nM.
In the case of `COC(=O)N[C@H](C(=O)N1CCC[C@H]1c1ncc(-c2ccc3c(c2)OC(c2ccc(-c4cncnc4)cc2)n2c-3cc3cc(-c4cnc([C@@H]5CCCN5C(=O)[C@@H](NC(=O)OC)C(C)C)[nH]4)ccc32)[nH]1)C(C)C` (mixture of isomers), the EC50 in [2] was 0.07 nM; in data set [5], 70 nM; in [6] it was 0.023 nM; in [12], 13 nM; in [8] it was 0.04 nM; in data set [9], 1 nM. Moreover, the EC50 in data set [10] worked out at 0.04 nM; in [11], 10 nM.
With `COC(=O)N[C@H](C(=O)N1CCC[C@H]1c1ncc(-c2ccc3c(c2)OC(c2ccc(OC)cc2)n2c-3cc3cc(-c4cnc([C@@H]5CCCN5C(=O)[C@@H](NC(=O)OC)C(C)C)[nH]4)ccc32)[nH]1)C(C)C` (mixture of isomers), the concentration giving a half-maximal response (EC50) in [2] was 0.01 nM; in [5], 15 nM; in [6] it was 0.007 nM; in data set [12], 0.8 nM; in data set [8] it was 0.008 nM; in [9] it was 0.07 nM. Also, the values for the EC50 in data set [10] and in data set [11] were 0.004 nM and 0.3 nM, respectively.
As for `COC(=O)N[C@H](C(=O)N1CCC[C@H]1c1ncc(-c2ccc3c(c2)OC(c2cccc(C(N)=O)c2)n2c-3cc3cc(-c4cnc([C@@H]5CCCN5C(=O)[C@@H](NC(=O)OC)C(C)C)[nH]4)ccc32)[nH]1)C(C)C` (mixture of isomers), the half-maximal effective concentration (EC50) is 0.09 nM in data set [2]; 19 nM in [5]; 0.01 nM in [6]; greater than 100 nM in [12]; greater than 1 nM in data set [8]; greater than 1 nM in data set [9]. Further, the results for the EC50 in [10] and in data set [11] were 0.51 nM and 7 nM, respectively.
Take `COC(=O)N[C@H](C(=O)N1CCC[C@H]1c1ncc(-c2ccc3c(c2)OC(c2ccc(C#N)cc2)n2c-3cc3cc(-c4cnc([C@@H]5CCCN5C(=O)[C@@H](NC(=O)OC)C(C)C)[nH]4)ccc32)[nH]1)C(C)C` (mixture of isomers): the concentration for a half-maximal effect (EC50) turned out to be 0.004 nM in data set [2]; 12 nM in data set [5]; 0.003 nM in data set [6]; 6.5 nM in data set [12]; 0.01 nM in [8]; 0.25 nM in data set [9]. Further, the EC50 came out at 0.006 nM in data set [10] and 0.6 nM in data set [11].
With `COC(=O)N[C@H](C(=O)N1CCC[C@H]1c1ncc(-c2ccc3c(c2)OC(c2ccc(-c4ccc5cncn5c4)cc2)n2c-3cc3cc(-c4cnc([C@@H]5CCCN5C(=O)[C@@H](NC(=O)OC)C(C)C)[nH]4)ccc32)[nH]1)C(C)C` (mixture of isomers), the EC50 in data set [2] was determined as 0.03 nM; in data set [5] it was 20 nM; in [6], 0.01 nM; in data set [12] it was 4 nM; in [8], 0.03 nM; in data set [9] it was 1 nM. Also, the EC50 in [10] came to 0.04 nM; in data set [11], 2 nM.
Take `COC(=O)N[C@H](C(=O)N1CCC[C@H]1c1ncc(-c2ccc3c(c2)OC(c2cccnc2)n2c-3cc3cc(-c4cnc([C@@H]5CCCN5C(=O)[C@@H](NC(=O)OC)C(C)C)[nH]4)ccc32)[nH]1)C(C)C` (mixture of isomers): the EC50 came to 0.005 nM in data set [2]; 7 nM in [5]; 0.009 nM in [6]; 2 nM in [12]; 0.03 nM in [8]; 2 nM in [9]. The EC50 in data set [10] was 0.04 nM; in data set [11], 0.9 nM.
For the molecule `COC(=O)N[C@H](C(=O)N1CCC[C@H]1c1ncc(-c2ccc3c(c2)OC(c2cccc(C(F)(F)F)c2)n2c-3cc3cc(-c4cnc([C@@H]5CCCN5C(=O)[C@@H](NC(=O)OC)C(C)C)[nH]4)ccc32)[nH]1)C(C)C` (mixture of isomers), the EC50 in data set [2] came out at 0.003 nM; in data set [5], 2 nM; in data set [6], 0.003 nM; in [12] it was 2 nM; in data set [8] it was 0.01 nM; in data set [9], 0.04 nM. Moreover, the EC50 was 0.003 nM in data set [10] and 0.62 nM in data set [11].
Consider `COC(=O)N[C@H](C(=O)N1CCC[C@H]1c1ncc(-c2ccc3c(c2)OC(c2ccc(-c4c(C)nn(C)c4C)cc2)n2c-3cc3cc(-c4cnc([C@@H]5CCCN5C(=O)[C@@H](NC(=O)OC)C(C)C)[nH]4)ccc32)[nH]1)C(C)C` (mixture of isomers), for which the EC50 is 0.04 nM in data set [2]; 15 nM in data set [5]; 0.02 nM in data set [6]; 5 nM in data set [12]; 0.03 nM in data set [8]; 0.2 nM in data set [9]. In addition, the EC50 in data set [10] is 0.02 nM; in data set [11], less than 2 nM.

The record behind these values is ChEMBL document CHEMBL3822455, “Aryl or heteroaryl substituted aminal derivatives of HCV NS5A inhibitor MK-8742” (Bioorg Med Chem Lett, 2016).
